US20250195530A1, “POLQ INHIBITORS” (ASTRAZENECA AB, priority 2022, published 2025)

Legend:
DLD-1 BRCA2−/− cells = assay: Homologous recombination synthetic lethal inhibition of proliferation, DLD-1 BRCA2-/- (Cell Titre Glo 3D); format: cell-based; settings: Homo sapiens, DLD-1, 288 h, DLD-1 BRCA2−/− cells, 12 days; read-out: POLQ PD Prolif Lumin BRCA2 −/− mean pIC50 (converted)
Procedure, shortened: (§1)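 Wild-type DLD-1 serves as the control for non-specific toxicity, and BRCA2-null DLD-1 as the homologous-recombination-deficient line. Both grew with compound from 10 μM down to 0.51 nM, re-dosed after 6 days. Luminescent ATP content (CellTiter-Glo 3D) was read after 7 or 12 days, respectively, to give IC50 values.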

DLD-1 cells = assay: Inhibition of proliferation, DLD-1 BRCA2 wt control (Cell Titre Glo 3D); format: cell-based; settings: Homo sapiens, DLD-1, 168 h, DLD-1 BRCA2 wt cells, 7 days; read-out: POLQ PD Prolif Lumin DLD1 mean pIC50 (converted)
Procedure, shortened: as §1

Compound	IC50 (DLD-1 cells) [nM]	IC50 (DLD-1 BRCA2−/− cells) [nM]
CC1(Oc2ncnc3c2nc(-c2ccc(OCCN)cc2Cl)n3Cc2ccccc2)CC1 [Example D23, 2-(4-(9-benzyl-6-(1-methylcyclopropoxy)-9H-purin-8-yl)-3-chlorophenoxy)ethan-1-amine]	7940	794
CC1(Oc2ncnc3c2nc(-c2ccc(OCC(=O)O)cc2Cl)n3Cc2ccccc2)CC1 [Example D24, 2-(4-(9-benzyl-6-(1-methylcyclopropoxy)-9H-purin-8-yl)-3-chlorophenoxy)acetic acid]	> 10000	> 10000
CC1(Oc2ncnc3c2nc(-c2ccc(OC[C@H]4CCCN4)cc2Cl)n3Cc2ccccc2)CC1 [Example D25, (R)-9-benzyl-8-(2-chloro-4-(pyrrolidin-2-ylmethoxy)phenyl)-6-(1-methylcyclopropoxy)-9H-purine]	2510	100
CC1(Oc2ncnc3c2nc(-c2ccc(OCC(N)=O)cc2Cl)n3Cc2ccccc2)CC1 [Example D27, 2-(4-(9-benzyl-6-(1-methylcyclopropoxy)-9H-purin-8-yl)-3-chlorophenoxy)acetamide]	> 10000	100
CC1(Oc2ncnc3c2nc(-c2ccc(OCC(=O)NCCO)cc2Cl)n3Cc2ccccc2)CC1 [Example D28, 2-(4-(9-benzyl-6-(1-methylcyclopropoxy)-9H-purin-8-yl)-3-chlorophenoxy)-N-(2-hydroxyethyl)acetamide]	> 10000	79.4
CC1(Oc2ncnc3c2nc(-c2ccc(OCCNCC(=O)O)cc2Cl)n3Cc2ccccc2)CC1 [Example D29, (2-(4-(9-benzyl-6-(1-methylcyclopropoxy)-9H-purin-8-yl)-3-chlorophenoxy)ethyl)glycine]	> 10000	5010
CN(CCOc1ccc(-c2nc3c(OC4(C)CC4)ncnc3n2Cc2ccccc2)c(Cl)c1)CC(=O)O [Example D30, N-(2-(4-(9-benzyl-6-(1-methylcyclopropoxy)-9H-purin-8-yl)-3-chlorophenoxy)ethyl)-N-methylglycine]	> 10000	1260
CC1(Oc2ncnc3c2nc(-c2ccc(O[C@H]4CNC[C@H]4F)cc2Cl)n3Cc2ccccc2)CC1 [Example D31, 9-benzyl-8-(2-chloro-4-(((3S,4R)-4-fluoropyrrolidin-3-yl)oxy)phenyl)-6-(1-methylcyclopropoxy)-9H-purine]	7940	200
CC1(Oc2ncnc3c2nc(-c2ccc(O[C@@H]4CCCNC4)cc2Cl)n3Cc2ccccc2)CC1 [Example D32, (R)-9-benzyl-8-(2-chloro-4-(piperidin-3-yloxy)phenyl)-6-(1-methylcyclopropoxy)-9H-purine]	6310	126
CC1(Oc2ncnc3c2nc(-c2ccc(OC4CCNCC4)cc2Cl)n3Cc2ccccc2)CC1 [Example D33, 9-benzyl-8-(2-chloro-4-(piperidin-4-yloxy)phenyl)-6-(1-methylcyclopropoxy)-9H-purine]	3160	63.1
CC1(Oc2ncnc3c2nc(-c2ccc(OC4CC5(CNC5)C4)cc2Cl)n3Cc2ccccc2)CC1 [Example D34, 8-(4-((2-azaspiro[3.3]heptan-6-yl)oxy)-2-chlorophenyl)-9-benzyl-6-(1-methylcyclopropoxy)-9H-purine]	3980	200
CC1(Oc2ncnc3c2nc(-c2ccc(OC4CNC4)cc2Cl)n3Cc2ccccc2)CC1 [Example D35, 8-(4-(azetidin-3-yloxy)-2-chlorophenyl)-9-benzyl-6-(1-methylcyclopropoxy)-9H-purine]	3980	501
CN1CCN(CCOc2ccc(-c3nc4c(OC5(C)CC5)ncnc4n3Cc3ccccc3Cl)c(Cl)c2)CC1 [Example E1, 8-(2-chloro-4-(2-(4-methylpiperazin-1-yl)ethoxy)phenyl)-9-(2-chlorobenzyl)-6-(1-methylcyclopropoxy)-9H-purine]	2510	31.6
CN1CCN(CCOc2ccc(-c3nc4c(OC5(C)CC5)ncnc4n3Cc3cccc(Cl)c3)c(Cl)c2)CC1 [Example E2, 8-(2-chloro-4-(2-(4-methylpiperazin-1-yl)ethoxy)phenyl)-9-(3-chlorobenzyl)-6-(1-methylcyclopropoxy)-9H-purine]	3160	25.1
CN1CCN(CCOc2ccc(-c3nc4c(OC5(C)CC5)ncnc4n3Cc3cccc(F)c3F)c(Cl)c2)CC1 [Example E3, 8-(2-chloro-4-(2-(4-methylpiperazin-1-yl)ethoxy)phenyl)-9-(2,3-difluorobenzyl)-6-(1-methylcyclopropoxy)-9H-purine]	3980	50.1
CN1CCN(CCOc2ccc(-c3nc4c(OC5(C)CC5)ncnc4n3CCc3ccccc3)c(Cl)c2)CC1 [Example E4, 8-(2-chloro-4-(2-(4-methylpiperazin-1-yl)ethoxy)phenyl)-6-(1-methylcyclopropoxy)-9-phenethyl-9H-purine]	7940	200
CN1CCN(CCOc2ccc(-c3nc4c(OC5(C)CC5)ncnc4n3Cc3ccccn3)c(Cl)c2)CC1 [Example E5, 8-(2-chloro-4-(2-(4-methylpiperazin-1-yl)ethoxy)phenyl)-6-(1-methylcyclopropoxy)-9-(pyridin-2-ylmethyl)-9H-purine]	7940	501
CN1CCN(CCOc2ccc(-c3nc4c(OC5(C)CC5)ncnc4n3Cc3ncccn3)c(Cl)c2)CC1 [Example E6, 8-(2-chloro-4-(2-(4-methylpiperazin-1-yl)ethoxy)phenyl)-6-(1-methylcyclopropoxy)-9-(pyrimidin-2-ylmethyl)-9H-purine]	> 10000	1580
CC1(Oc2ncnc3c2nc(-c2ccc(OCCN4CCNCC4)cc2Cl)n3Cc2ccccn2)CC1 [Example E7, 8-(2-chloro-4-(2-(piperazin-1-yl)ethoxy)phenyl)-6-(1-methylcyclopropoxy)-9-(pyridin-2-ylmethyl)-9H-purine]	> 10000	1260

The next lines start with results.

IC50 (DLD-1 cells) [nM]	Compound	IC50 (DLD-1 BRCA2−/− cells) [nM]
> 10000	Cc1cc(N2CCC(N)CC2)ncc1-c1nc2c(OC3(C)CC3)ncnc2n1Cc1ccccc1 [Example F1, 1-(5-(9-benzyl-6-(1-methylcyclopropoxy)-9H-purin-8-yl)-4-methylpyridin-2-yl)piperidin-4-amine]	398
> 10000	Cc1cc(N2CC(N(C)C)C2)ncc1-c1nc2c(OC3(C)CC3)ncnc2n1Cc1ccccc1 [Example F2, 1-(5-(9-benzyl-6-(1-methylcyclopropoxy)-9H-purin-8-yl)-4-methylpyridin-2-yl)-N,N-dimethylazetidin-3-amine]	316
> 10000	Cc1cc(N2CCC(N(C)C)CC2)ncc1-c1nc2c(OC3(C)CC3)ncnc2n1Cc1ccccc1 [Example F3, 1-(5-(9-benzyl-6-(1-methylcyclopropoxy)-9H-purin-8-yl)-4-methylpyridin-2-yl)-N,N-dimethylpiperidin-4-amine]	251
6310	Cc1cc(OCCCN2CCNCC2)ncc1-c1nc2c(OC3(C)CC3)ncnc2n1Cc1ccccc1 [Example G1, 9-benzyl-8-(4-methyl-6-(3-(piperazin-1-yl)propoxy)pyridin-3-yl)-6-(1-methylcyclopropoxy)-9H-purine]	501
> 10000	Cc1cc(OCCCN(C)C)ncc1-c1nc2c(OC3(C)CC3)ncnc2n1Cc1ccccc1 [Example G2, 3-((5-(9-benzyl-6-(1-methylcyclopropoxy)-9H-purin-8-yl)-4-methylpyridin-2-yl)oxy)-N,N-dimethylpropan-1-amine]	1000
6310	CC(=O)N1CCN(CCCOc2cc(C)c(-c3nc4c(OC5(C)CC5)ncnc4n3Cc3ccccc3)cn2)CC1 [Example G3, 1-(4-(3-((5-(9-benzyl-6-(1-methylcyclopropoxy)-9H-purin-8-yl)-4-methylpyridin-2-yl)oxy)propyl)piperazin-1-yl)ethan-1-one]	1000
> 10000	CC(=O)N1CCN(CCOc2cc(C)c(-c3nc4c(OC5(C)CC5)ncnc4n3Cc3ccccc3)cn2)CC1 [Example G4, 1-(4-(2-((5-(9-benzyl-6-(1-methylcyclopropoxy)-9H-purin-8-yl)-4-methylpyridin-2-yl)oxy)ethyl)piperazin-1-yl)ethan-1-one]	1260
7940	Cc1cc(OCCCN2CCCC2)ncc1-c1nc2c(OC3(C)CC3)ncnc2n1Cc1ccccc1 [Example G5, 9-benzyl-8-(4-methyl-6-(3-(pyrrolidin-1-yl)propoxy)pyridin-3-yl)-6-(1-methylcyclopropoxy)-9H-purine]	398
> 10000	Cc1cc(OCCN2CCNCC2)ncc1-c1nc2c(OC3(C)CC3)ncnc2n1Cc1ccccc1 [Example G6, 9-benzyl-8-(4-methyl-6-(2-(piperazin-1-yl)ethoxy)pyridin-3-yl)-6-(1-methylcyclopropoxy)-9H-purine]	501
> 10000	Cc1cc(OCCCN2CCOCC2)ncc1-c1nc2c(OC3(C)CC3)ncnc2n1Cc1ccccc1 [Example G7, 4-(3-((5-(9-benzyl-6-(1-methylcyclopropoxy)-9H-purin-8-yl)-4-methylpyridin-2-yl)oxy)propyl)morpholine]	398
7940	Cc1cc(OCCN)ncc1-c1nc2c(OC3(C)CC3)ncnc2n1Cc1ccccc1 [Example G8, 2-((5-(9-benzyl-6-(1-methylcyclopropoxy)-9H-purin-8-yl)-4-methylpyridin-2-yl)oxy)ethan-1-amine]	2000
1580	Cc1cc(OCCCN)ncc1-c1nc2c(OC3(C)CC3)ncnc2n1Cc1ccccc1 [Example G9, 3-((5-(9-benzyl-6-(1-methylcyclopropoxy)-9H-purin-8-yl)-4-methylpyridin-2-yl)oxy)propan-1-amine]	794
